The test system of this experiment is L1210 mouse leukemia cells. Put plainly: Three-day L1210 cell growth inhibition assay (at 37° C.). It counts as cell-based. To be noted: for growth of L1210 mouse leukemia cells in vitro: statement in words. The method, then: Three-day L1210 cell growth inhibition assay (at 37° C.)
The mark [1] stands for this setting: three-day L1210 cell growth inhibition, 37° C., first ID50/ID90 column pair of Table 1.
Setting [2] is: three-day L1210 cell growth inhibition, 37° C., second ID50/ID90 column pair of Table 1.
Setting [3] is: three-day L1210 cell growth inhibition assay.

In brackets after ≈: the same amount, converted by molar mass. Numbered stars: 1 amine (or outer) side, 2 acyl side, 3 side chain; on linkers, the order of the positions; unused ones are H or OH. Bridge positions count the residues as written; N and C are the ends. Square brackets hold non-standard residues; d marks the D form. Peptide text beside a SMILES is read from it. X1 = CC[C@H](C)[C@@H](N[*:1])[C@@H](O)CC(=O)O[C@H](C(=O)[C@H](C)C(=O)[*:2])C(C)C; NMeY = CN[C@@H](Cc1ccc(O)cc1)C(=O)O; dNMeL = CN[C@H](CC(C)C)C(=O)O

Under setting [1], `CC[C@H](C)[C@H]1NC(=O)[C@@H](NC(=O)[C@@H](CC(C)C)NC)[C@@H](C)OC(=O)[C@H](Cc2ccc(OC)cc2)N(C)C(=O)[C@@H]2CCCN2C(=O)[C@H](CC(C)C)NC(=O)[C@@H](C)C(=O)[C@H](C(C)C)OC(=O)C[C@@H]1O` [Didemnin A, didemnin A] (H-[dNMeL]T[X1]LP[NMeY](Me); ester 2-C) displayed an ID50 of 7.8 ng/mL (≈ 0.00827 µM) and an ID90 of 0.058 µg/mL (≈ 0.0615 µM).

Under setting [1], didemnin D yielded an ID50 of 3.4 ng/mL and an ID90 of 0.015 µg/mL. Under setting [2], this molecule displayed an ID50 of 4.2 ng/mL and an ID90 of 0.016 µg/mL.

In the case of “3-hydroxydecanoyl-L-Gln-L-Gln-L-Gln-L-Gln-didemnin B [Didemnin Y]”, the “growth of L1210 mouse leukemia cells in vitro” value is on record as “inhibit the growth”. Under setting [3], the ID50 was found to be 6.4 ng/mL. Besides, under setting [1], the ID50 stood at 6.4 ng/mL and the ID90 turned out to be 0.021 µg/mL. Also, under setting [2], the ID50 amounted to 4.8 ng/mL and the ID90 was 0.02 µg/mL.

As to didemnin E, the ID50 runs as follows: under setting [1], 1.1 ng/mL; under setting [2], 0.8 ng/mL. Also, the ID90 is, setting by setting: under setting [1], 0.0076 µg/mL; under setting [2], 0.0056 µg/mL.

With `CC[C@H](C)[C@H]1NC(=O)[C@@H](NC(=O)[C@@H](CC(C)C)N(C)C(=O)[C@@H]2CCCN2C(=O)C(C)O)[C@@H](C)OC(=O)[C@H](Cc2ccc(OC)cc2)N(C)C(=O)[C@@H]2CCCN2C(=O)[C@H](CC(C)C)NC(=O)[C@@H](C)C(=O)[C@H](C(C)C)OC(=O)C[C@@H]1O` (stereo partly drawn) [Didemnin B, didemnin B], under setting [2], the ID50 worked out at 3.8 ng/mL (≈ 0.00342 µM) and the ID90 came to 0.015 µg/mL (≈ 0.0135 µM).

For “(R)-3-hydroxydecanoyl-L-Gln-L-Gln-L-Gln-didemnin B [Didemnin X]”, the “growth of L1210 mouse leukemia cells in vitro” value is reported as “inhibit the growth”. Besides, the ID50 under setting [3] was 4 ng/mL. Under setting [1], the ID50 stood at 4 ng/mL and the ID90 is 0.017 µg/mL. Under setting [2], this molecule registered an ID50 of 4.8 ng/mL and an ID90 of 0.017 µg/mL.

The record behind these values is patent US4948791A, “Novel Cytotoxic cyclic depsipeptides from the tunicate trididemnum solidum” (priority 1989, dated 1990).
